According to patent US11667638B2, “4-substitued cytisine analogues” (The University of Bristol, priority 2016, dated 2023):

Legend:
α3β4 nAChRs = α3β4 nAChRs (Homo sapiens (Human), UniProt P30926+P32297); experiment: Maximal gating efficacy on α3β4 nAChRs in Xenopus oocytes, two electrode voltage clamp; type: cell-based; conditions: maximal current relative to 1 mM ACh
Procedure: (§1) Compounds of the invention were tested for effects on the function of human α4β2, α3β4 and α7 nicotinic acetylcholine receptors (nAChRs) expressed heterologously in Xenopus oocytes. […] Expression in oocytes was obtained as follows: pCI (Promega, UK) plasmid containing human α4, β2, β4 or α7 complementary DNA were injected as previously described (Moroni et al., 2006). To express (α4)3(β2)2 nACh receptors, a mixture of 10α4:1β2 cDNAs was injected into the nucleus of oocytes, whereas for (α4)2(β2)3 receptors the cDNA ratio injected was 1α4:10β2.
(§2) Functional studies: Recordings were performed manually using a Geneclamp amplifier (Molecular Devices, USA) or using an automated HiClamp system. In both cases the oocytes were impaled with two electrodes filled with 3 M KCl and the cells were held at −60 mV throughout the experiments.
(§3) Oocyte isolation and two-electrode voltage-clamp recordings on oocytes were carried out as previously described (Moroni et al., 2006; Carbone et al., 2009). […] A minimum interval of 5 min was allowed between agonist applications to ensure reproducible recordings. Oocytes were exposed to increasing concentrations of the compounds until no further increases in the response amplitude were obtained. This concentration was taken as the concentration that causes maximal responses on the receptors tested. The data summarised in Tables 1-4 were obtained from at least 5 experiments carried out on oocytes obtained from at least three different donors.
Maximal gating efficacy of the compounds on α3β4 nAChRs: The concentration of the compounds causing maximal activation of α3β4 nAChRs expressed heterologously in Xenopus oocytes was determined using two electrode voltage clamping.

(α4)3(β2)2 nAChRs = (α4)3(β2)2 nAChRs (Homo sapiens (Human), UniProt P17787+P43681); experiment: Maximal gating efficacy on (α4)3(β2)2 nAChRs in Xenopus oocytes, two electrode voltage clamp; type: cell-based; conditions: (α4)3(β2)2, low sensitivity stoichiometry; maximal current relative to 1 mM ACh
(α4)3(β2)2 nAChRs, sequence (P43681 29-627): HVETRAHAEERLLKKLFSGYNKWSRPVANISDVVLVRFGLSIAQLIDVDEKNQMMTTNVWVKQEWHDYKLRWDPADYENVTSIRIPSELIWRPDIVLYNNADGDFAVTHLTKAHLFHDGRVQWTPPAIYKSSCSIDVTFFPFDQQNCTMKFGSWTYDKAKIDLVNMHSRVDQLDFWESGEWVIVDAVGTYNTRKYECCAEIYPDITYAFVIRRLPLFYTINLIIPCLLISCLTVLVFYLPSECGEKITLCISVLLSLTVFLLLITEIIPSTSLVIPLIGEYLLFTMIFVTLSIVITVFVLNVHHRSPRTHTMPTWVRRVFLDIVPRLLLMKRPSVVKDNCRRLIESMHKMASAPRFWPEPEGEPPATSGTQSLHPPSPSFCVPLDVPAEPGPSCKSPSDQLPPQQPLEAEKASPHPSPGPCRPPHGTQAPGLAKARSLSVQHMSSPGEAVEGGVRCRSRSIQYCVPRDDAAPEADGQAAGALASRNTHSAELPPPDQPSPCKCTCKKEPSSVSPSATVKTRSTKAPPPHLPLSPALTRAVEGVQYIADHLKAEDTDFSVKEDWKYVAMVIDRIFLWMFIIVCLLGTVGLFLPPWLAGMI
(α4)3(β2)2 nAChRs, sequence (P17787 26-502): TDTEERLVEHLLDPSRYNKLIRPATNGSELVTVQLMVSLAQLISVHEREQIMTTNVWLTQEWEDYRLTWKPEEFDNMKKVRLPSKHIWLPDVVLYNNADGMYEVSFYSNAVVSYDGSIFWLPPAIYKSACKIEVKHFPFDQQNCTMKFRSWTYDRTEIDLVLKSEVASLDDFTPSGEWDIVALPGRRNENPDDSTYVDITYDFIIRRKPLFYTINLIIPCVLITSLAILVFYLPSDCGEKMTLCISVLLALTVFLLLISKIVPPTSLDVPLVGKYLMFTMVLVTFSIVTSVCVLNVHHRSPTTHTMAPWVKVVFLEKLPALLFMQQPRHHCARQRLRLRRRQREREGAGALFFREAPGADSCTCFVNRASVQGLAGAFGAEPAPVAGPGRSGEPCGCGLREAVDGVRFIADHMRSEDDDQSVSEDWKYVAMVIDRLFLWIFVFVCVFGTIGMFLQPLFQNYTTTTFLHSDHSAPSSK
Procedure: as §1, §2, §3
Maximal gating efficacy of the compounds: The concentration of the compounds of the invention causing maximal activation of the (α4)3(β2)2 nAChRs expressed heterologously in Xenopus oocytes was determined using two electrode voltage clamping.

α4β2 nAChR = α4β2 nAChR (Homo sapiens (Human), UniProt P17787+P43681); type: binding; conditions: ratio of Ki values
α4β2 nAChR, sequence (P43681 29-627 limits assumed): as the sequence (P43681 29-627) above
α4β2 nAChR, sequence (P17787 26-502 limits assumed): as the sequence (P17787 26-502) above
Procedure: HEK 293 cells were grown in Dulbecco's modified Eagle medium supplemented with 10% fetal bovine serum, 1% L-Glutamine, 100 units/ml penicillin G, and 100 μg/streptomycin in a humidified atmosphere containing 10% CO2. The cDNAs encoding α3 and β4 or α4 and β2 (were transfected into the HEK 293 cells at 30% confluency). The cell transfections were carried out in 100 mm Petri dishes using 30 μL of JetPEI™ (Polypus, France) (1 mg/ml, pH 7.2) and 3 μg of each cDNA. After 24 h transfection, the cells were collected, washed with PBS by centrifugation, and used for binding analysis.
[^3H]-epibatidine saturation binding experiments to HEK transfected α3β4 or α4β2 receptors were performed by means of overnight incubation at 4° C. at concentrations ranging from 0.005 to 1 nM in a buffer containing 50 mM Tris-HCl, pH 7, 150 mM NaCl, 5 mM KCl, 1 mM MgCl2, 2.5 mM CaCl2 and 2 mg/ml BSA, in the presence (aspecific binding) or absence (total binding) of 100 nM cold epibatidine. Specific ligand binding was defined as total binding minus the binding in the presence of 100 nM cold epibatidine.
After incubation, the membranes of HEK cells transfected with α4β2* or α3β4 subtypes were washed by filtration on GFC filters with ice-cold PBS. The GFC filters were pre-soaked in polyethylenimine and filtered through an harvester apparatus. [^3H]-epibatidine binding was determined by means of liquid scintillation counting in a beta counter.
The ligand binding data were analyzed by means of nonlinear regression using Prism version 5 (GraphPad Software, Inc., La Jolla, Calif.). The Ki values were calculated from the experimental IC50 values using the Cheng-Prusoff equation for a single population of competitive sites: Ki=IC50/[1+(L/Kd)], where L is the concentration of radioligand used in each experiment and the Kd values were determined by saturation binding experiment. All of the assays were performed in duplicate and repeated at least two-three times.

(α4)2(β2)3 nAChRs = (α4)2(β2)3 nAChRs (Homo sapiens (Human), UniProt P17787+P43681); experiment: Maximal gating efficacy on (α4)2(β2)3 nAChRs in Xenopus oocytes, two electrode voltage clamp; type: cell-based; conditions: (α4)2(β2)3, high sensitivity receptors; maximal current relative to 1 mM ACh
(α4)2(β2)3 nAChRs, sequence (P43681 29-627): as the sequence (P43681 29-627) above
(α4)2(β2)3 nAChRs, sequence (P17787 26-502): as the sequence (P17787 26-502) above
Procedure: as §1, §2, §3
Maximal gating efficacy of compounds on (α4)2(β2)3 receptors (high sensitivity receptors): The concentration of the compounds causing maximal activation of the (α4)2(β2)3 nAChRs expressed heterologously in Xenopus oocytes was determined using two electrode voltage clamping.

α3β4 nAChRs, sequence (P32297 32-505): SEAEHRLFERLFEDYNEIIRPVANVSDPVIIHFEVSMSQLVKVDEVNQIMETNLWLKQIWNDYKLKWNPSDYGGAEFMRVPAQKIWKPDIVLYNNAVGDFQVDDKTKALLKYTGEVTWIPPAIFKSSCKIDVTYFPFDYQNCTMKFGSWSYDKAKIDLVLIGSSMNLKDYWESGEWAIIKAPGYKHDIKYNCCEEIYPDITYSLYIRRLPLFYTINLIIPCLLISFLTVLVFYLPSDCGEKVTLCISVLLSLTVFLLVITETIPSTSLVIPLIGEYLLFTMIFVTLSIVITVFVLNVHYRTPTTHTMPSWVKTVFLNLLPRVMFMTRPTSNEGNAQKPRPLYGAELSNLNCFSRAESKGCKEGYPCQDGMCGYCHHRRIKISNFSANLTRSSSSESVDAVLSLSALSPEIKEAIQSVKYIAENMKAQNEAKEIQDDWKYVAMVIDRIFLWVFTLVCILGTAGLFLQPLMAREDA
α3β4 nAChRs, sequence (P30926 22-498): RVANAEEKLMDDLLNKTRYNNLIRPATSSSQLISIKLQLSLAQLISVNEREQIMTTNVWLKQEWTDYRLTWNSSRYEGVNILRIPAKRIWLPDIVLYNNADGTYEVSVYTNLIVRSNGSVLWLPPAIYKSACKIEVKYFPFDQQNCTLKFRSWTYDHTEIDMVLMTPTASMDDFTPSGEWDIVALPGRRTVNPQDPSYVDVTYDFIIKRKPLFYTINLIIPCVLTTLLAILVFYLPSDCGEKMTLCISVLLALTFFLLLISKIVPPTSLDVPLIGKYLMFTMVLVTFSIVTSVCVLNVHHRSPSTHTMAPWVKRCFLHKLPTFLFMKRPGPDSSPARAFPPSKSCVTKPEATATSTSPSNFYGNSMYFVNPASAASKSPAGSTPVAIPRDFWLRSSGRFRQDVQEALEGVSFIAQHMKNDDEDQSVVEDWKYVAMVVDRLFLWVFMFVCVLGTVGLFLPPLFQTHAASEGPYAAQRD

Molecule	Relative efficacy (ACh) (α3β4 nAChRs)	Relative efficacy (ACh) ((α4)3(β2)2 nAChRs)	Ratio α3β4/α4β2 (α4β2 nAChR)	Relative efficacy (ACh) ((α4)2(β2)3 nAChRs)
Nc1cc2n(c(=O)c1Br)CC1CNCC2C1 (single isomer, unassigned; (+)) [BS71, (+)-(3-bromo-4-amino)cytisine]	0.632 ± 0.067	0.152 ± 0.1223		
Nc1cc2n(c(=O)c1)CC1CNC[C@@H]2C1 (single isomer, unassigned; (+)) [Compound 81, (+)4-aminocytisine]	0.0210 ± 0.008	0.007 ± 0.01061	1561.0	0.024 ± 0.034
CNc1cc2n(c(=O)c1)CC1CNC[C@@H]2C1 (single isomer, unassigned; (+)) [Compound 84, (+)4-(N-Methylamino)cytisine]	0.0233 ± 0.005	0.048 ± 0.040	2546.3	0.042 ± 0.059
CN(C)c1cc2n(c(=O)c1)CC1CNC[C@@H]2C1 (single isomer, unassigned; (+)) [Compound 86, (+)4-(N,N′-dimethylamino)cytisine]			5.8	
CCNc1cc2n(c(=O)c1)CC1CNCC2C1 (single isomer, unassigned; (+)) [Compound 87, (+)4-(N-ethylamino)cytisine]	0.010 ± 0.009	0.011 ± 0.001	835.2	0.023 ± 0.032
O=c1cc(N2CCNCC2)cc2n1CC1CNC[C@@H]2C1 (single isomer, unassigned; (+)) [Compound 90, (+)4-(N-piperazinyl)cytisine]			14.1	
O=c1cc(N2CCOCC2)cc2n1CC1CNC[C@@H]2C1 (single isomer, unassigned; (+)) [Compound 92, (+)4-N-morpholinecytisine]			70.6	
O=C(Nc1cc2n(c(=O)c1)CC1CNC[C@@H]2C1)c1ccccc1 (single isomer, unassigned; (+)) [Compound 96, (+)4-(N-Benzoylamino)cytisine]			89.6	
Cl.O=c1cc(/C=C/c2ccccc2)cc2n1CC1CNC[C@@H]2C1 (single isomer, unassigned; (+)) [Compound 114, (+)4-(E-(2-phenylethenyl))cytisine]			145.5	
C=Cc1cc2n(c(=O)c1)CC1CNC[C@@H]2C1 (single isomer, unassigned; (+)) [Compound 116, (+)4-Vinylcytisine]			100.1	
Cl.O=c1cc(C#Cc2ccccc2)cc2n1CC1CNC[C@@H]2C1 (single isomer, unassigned; (+)) [Compound 129, (+)4-(phenylacetylene)cytisine]			32.2	
CNc1cc2n(c(=O)c1Br)CC1CNC[C@@H]2C1 (single isomer, unassigned; (+)) [Compound 158, (+)3-Bromo-4-N-methylaminocytisine]	0.057 ± 0.016	0.049 ± 0.012	106.9	0.038 ± 0.054
Cl.O=c1c(Br)c(I)cc2n1CC1CNC[C@@H]2C1 (single isomer, unassigned; (+)) [Compound 160, (+)3-Bromo-4-iodocytisine]			50.0	
O=c1c(Br)c(O)cc2n1CC1CNCC2C1 (single isomer, unassigned; (-)) [BS70, (−)-(3-bromo-4-hydroxy)cytisine]	0.108 ± 0.149	0.114 ± 0.113		
CCc1cc2n(c(=O)c1Br)CC1CNCC2C1 (single isomer, unassigned; (-)) [BS74, (−)-(3-bromo-4-ethyl)cytisine]	1.75 ± 0.56	0.126 ± 0.067		0.121 ± 0.171
Cl.O=c1cc(C(F)(F)F)cc2n1CC1CNC[C@@H]2C1 (single isomer, unassigned; (-)) [Compound 77, (−)4-Trifluoromethylcytisine]			12.9	

Molecule	Relative efficacy (ACh) (α3β4 nAChRs)	Relative efficacy (ACh) ((α4)3(β2)2 nAChRs)	Ratio α3β4/α4β2 (α4β2 nAChR)	Relative efficacy (ACh) ((α4)2(β2)3 nAChRs)
Cl.O=c1cc(CC(F)(F)F)cc2n1CC1CNC[C@@H]2C1 (single isomer, unassigned; (-)) [Compound 79, (−)4-(2,2,2-Trifluoroethyl)cytisine]			27.4	
Cl.O=c1ccccn1-c1cc2n(c(=O)c1)CC1CNC[C@@H]2C1 (single isomer, unassigned; (-)) [Compound 108, (−)4-(N-2-pyridone)cytisine]			90.3	
COC(=O)c1cc2n(c(=O)c1)CC1CNC[C@@H]2C1 (single isomer, unassigned; (-)) [Compound 119, (−)4-carboxymethycytisine]	0.040 ± 0.049	0.021 ± 0.007	366.5	0.0065 ± 0.0005
O=C(O)c1cc2n(c(=O)c1)CC1CNC[C@@H]2C1 (single isomer, unassigned; (-)) [Compound 120, (−)4-Carboxylic acidcytisine]			57.7	
O=C(O)[C@@H]1CCCN1c1cc2n(c(=O)c1)CC1CNC[C@@H]2C1 (single isomer, unassigned; (-)) [Compound 138, (−)4-(N-(L-proline)cytisine]			2.7	
Cl.NC(=O)c1cc2n(c(=O)c1)CC1CNC[C@@H]2C1 (single isomer, unassigned; (-)) [Compound 142, (−)4-(carboxyamido)cytisine]			36.2	
NCc1cc2n(c(=O)c1)CC1CNC[C@@H]2C1 (single isomer, unassigned; (-)) [Compound 144, (−)4-(aminomethyl)cytisine]			78.0	
O=c1cc(-c2nnn[nH]2)cc2n1CC1CNC[C@@H]2C1 (single isomer, unassigned; (-)) [Compound 149, (−)4-tetrazoylcytisine]			149.2	
CNCc1cc2n(c(=O)c1)CC1CNC[C@@H]2C1 (single isomer, unassigned; (-)) [Compound 152, (−)4-((N-methyl)aminomethyl)cytisine]		0.031 ± 0.043	807.0	
Cl.O=c1cc(CCc2ccccc2)cc2n1CC1CNC[C@@H]2C1 [?]			21.7	
CC(=O)OCC[N+](C)(C)C [ACh, reference compound]	1.0	1		1.0
O=c1cc(NCc2ccccc2)cc2n1CC1CNC[C@@H]2C1 [Compound 78]			125.0	
NCC(=O)Nc1cc2n(c(=O)c1)CC1CNC[C@@H]2C1 [Compound 98]			1670.0	
CN(C)Cc1cc2n(c(=O)c1)CC1CNC[C@@H]2C1 [Compound 151, 4-(dimethylamino)methyl-(−)-cytisine]			105.7	
(+)4-(E-2-propenoate methyl ester)cytisine [Compound 112]			152.8	
(−)4-(3-Pyridinyl)cytisine [Compound 104]			168.7	
